# Results taken from patent publication US12409176B2, “Methods of treating acute depression” (INTRA-CELLULAR THERAPIES, INC., priority 2018, dated 2025).
# What was measured:
# [1] = molecular target: serotonin transporter (SERT) (Homo sapiens, UniProt P31645); assay: Comparative serotonin transporter (SERT) inhibition among antipsychotic agents (FIG. 3); type: biochemical; settings: FIG. 3, compared among antipsychotic drugs
# [2] = Antidepressant-like behaviors in rodents; type: in vivo
# [3] = system: hippocampal cytokine mRNA (IL-1β, IL-6, TNFα, CCL2, IL-4, IL-10); assay: LPS-induced stress: hippocampal cytokine mRNA by qPCR (FIG. 9, 10); type: in vivo, mice
# Procedure: Male, C57/B16 mice (n=6-12/group) are divided into five groups-control (vehicle/saline), vehicle/LPS, and […] at three different doses of ITI-007. Mice are first injected i.p. with either vehicle (5% DMSO, 5% Tween, 15% PEG, 75% water) or ITI-007 at 0.3 mg/kg, 3.0 mg/kg or 8.0 mg/kg. The mice are then immediately injected s.c. with either 0.9% saline or with 500 μg/kg lipopolysaccharide (LPS) diluted in 0.9% saline. After two hours, the animals are sacrificed, and hippocampal slices are obtained and analyzed for cytokine mRNA using qPCR. The results are shown in FIG. 9, normalized to the control group using the delta ct method. […] The results are shown in FIG. 10, normalized to the control group.
# [4] = system: serum cytokines (IL-1β, IL-6, TNF, IL-10, IFN-gamma); assay: Restraint stress: serum cytokines by MSD multiplex (FIG. 2); type: in vivo, mice; settings: pre-treatment 3 mg/kg i.p., 2 h restraint stress
# Procedure: (§1) Male, C57/B16 mice (n=6-7/group) are divided into three groups—control (vehicle alone, no stress), vehicle—stress (vehicle, i.p.), or ITI-007—stress (3 mg/kg, i.p. in vehicle). For induction of stress, mice are placed in a plastic “decapicones” and placed on the bottom of a warm, clean rodent cage for a 2 h period. These plastic “decapicones” produce an acute restraint stress which triggers neuroinflammation in both hippocampal tissue and peripherally (as shown by serum). At the end of the stress exposure, mice are killed; blood is taken for serum preparation and brain tissue for analysis. Serum is prepared from blood; cytokine measures are performed using MSD multiplex analysis. Brain tissue is analyzed by qPCR for pro-inflammatory cytokine mRNA expression.
# [5] = Safety and tolerability in humans; type: in vivo
# [6] = system: hippocampal pro- and anti-inflammatory cytokine expression; assay: Restraint stress: hippocampal cytokine expression by qPCR (FIG. 1); type: in vivo, mice; settings: 3 mg/kg i.p., 2 h restraint stress, not statistically significant
# Procedure: as §1
# [7] = Clinical studies in acute exacerbated schizophrenia: emotional experience symptoms; settings: 60 mg P.O. once daily, up to 28 days; patients with acute exacerbated schizophrenia; two clinical studies
# [8] = system: NMDA receptor currents in mPFC pyramidal neurons; assay: NMDA currents in mPFC slices, whole-cell patch clamp (FIG. 4); type: cell-based, rat
# [9] = system: mTORC1 signaling pathway (AKT Thr308, mTOR Ser2448, P70s6 kinase Thr389); assay: mTOR signaling pathway phosphoprotein levels in prefrontal cortex (FIG. 7, 8); type: in vivo, rat; settings: adult rats; lumateperone 1 to 8 mg/kg i.p., ketamine 30 mg/kg; 60 min, 90 min or 24 hours
# [10] = system: AMPA receptor currents in mPFC pyramidal neurons; assay: AMPA currents in mPFC slices, whole-cell patch clamp (FIG. 5, 6); type: cell-based; settings: bath applied to rat mPFC slices, 3-100 nM, 5 min later
# Source text: Combined administration of the antipsychotic, olanzapine, and the SSRI, fluoxetine, similarly induces rapid antidepressant activity in humans and animals (Tohen et al., 2010); likewise, combined application of olanzapine and fluoxetine is required to induce AMPA receptor currents in vitro.
# [11] = Symptoms of depression in patients with schizophrenia; type: in vivo, human
# [12] = system: mTORC1 signaling pathway (AKT Thr308, mTOR Ser2448, P70s6 kinase Thr389); assay: mTOR signaling pathway phosphoprotein levels in prefrontal cortex (FIG. 7, 8); type: in vivo, rat; settings: for mTOR phosphorylation (Serine 2448) / p70s6K phosphorylation (Threonine 389) / phosphorylation of AKT at thr308: rat PFC; for mTOR phosphorylation (Serine 2448) / p70s6K phosphorylation (Threonine 389): lumateperone 3 mg/kg or ketamine 30 mg/kg i.p.; for mTOR phosphorylation (Serine 2448) / phosphorylation of AKT at thr308: 1 hour and 24 hours; for p70s6K phosphorylation (Threonine 389): over the 24 hour period; for phosphorylation of AKT at thr308: one i.p. injection, lumateperone 3 mg/kg or ketamine 30 mg/kg, vs saline
# Procedure: It is known that upstream and downstream effectors of the mTOR (e.g., mTORC1) signaling pathway are increased in the mPFC of rats 1 hour and 24 hours after administration of the rapid-acting antidepressant ketamine.
# Pre-frontal cortical phosphorylation levels of AKT (at Threonine 308), mTOR (at Serine 2448) or P70s6 kinase (at Threonine 389) are evaluated after normalization to total protein levels for each target, at both 1 hour and 24 hours. Results are shown as the percent relative change compared to placebo (saline).
# [13] = system: hippocampal gene expression; assay: NanoString Mouse Neuropathology panel, hippocampal mRNA after LPS; type: in vivo, mice; settings: Lumateperone/LPS compared to vehicle/LPS, 3 mg/kg i.p., 2 hours
# Procedure: Immediately after this injection, the mice are injected with either LPS (500 μg/kg diluted in 0.9% saline) or with 0.9% saline. After 2 hours, the mice are sacrificed, and hippocampal mRNA is obtained, as described in Example 1. Hippocampal RNA concentration and integrity are evaluated using an Agilent 2100 Bioanalyzer. Sample preparation, hybridization and detection are carried out according to NanoString manufacturer's instructions (NanoString technologies, WA). RNA (100 ng) expression profiling is performed using the nCounter NanoString Mouse Neuropathology panel, and data are analyzed using the nSolver software to produce and compare direct counts of mRNA. […] The neuropathology panel was developed to include genes of relevance for research in models of neurodegenerative and neurological disorders, such as Alzheimer's disease, Parkinson's disease, Amyotrophic Lateral Sclerosis, Frontotemporal Dementia, and Huntington's disease. The panel includes 770 genes associated with themes of neurotransmission, neuron-glia interaction, neuroplasticity, cell structure integrity, neuroinflammation and metabolism
# [14] = system: phosphor-mTOR; settings: single antidepressant-effective dose; prefrontal cortex and hippocampus of mice and rats; cited from earlier work
# [15] = cited from earlier work
# [16] = 0.3, 3.0 or 8.0 mg/kg i.p., co-injection with LPS 500 μg/kg s.c., 2 hours, FIG. 9
# Chain of serotonin transporter (SERT) (P31645 whole entry, species assumed): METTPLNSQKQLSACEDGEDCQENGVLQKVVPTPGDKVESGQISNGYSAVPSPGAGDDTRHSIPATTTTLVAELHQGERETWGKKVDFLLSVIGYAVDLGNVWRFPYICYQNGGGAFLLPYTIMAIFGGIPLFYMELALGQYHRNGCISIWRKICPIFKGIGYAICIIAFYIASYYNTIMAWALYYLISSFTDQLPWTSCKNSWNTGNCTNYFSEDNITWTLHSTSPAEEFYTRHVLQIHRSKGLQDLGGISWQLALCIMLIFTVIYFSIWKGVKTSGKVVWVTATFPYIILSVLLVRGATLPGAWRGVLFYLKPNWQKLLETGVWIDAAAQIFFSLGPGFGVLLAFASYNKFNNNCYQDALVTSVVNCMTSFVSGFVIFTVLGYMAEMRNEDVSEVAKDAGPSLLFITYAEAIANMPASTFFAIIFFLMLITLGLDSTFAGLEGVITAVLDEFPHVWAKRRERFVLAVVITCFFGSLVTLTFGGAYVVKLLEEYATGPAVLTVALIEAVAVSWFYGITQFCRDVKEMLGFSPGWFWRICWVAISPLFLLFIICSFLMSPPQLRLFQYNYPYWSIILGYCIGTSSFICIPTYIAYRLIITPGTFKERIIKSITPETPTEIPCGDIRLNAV
smiles,measurement,setting,value
CN1CCN2c3c(cccc31)[C@@H]1CN(CCCC(O)c3ccc(F)cc3)CC[C@@H]12 (stereo partly drawn) [IC200131],SERT inhibition,[1],high SERT inhibition
same,antidepressant-like behaviors,[2],elicit antidepressant-like behaviors
"CN1CCN2c3c(cccc31)[C@@H]1CN(CCCC(=O)c3ccc(F)cc3)CC[C@@H]12 [Lumateperone, 4-((6bR,10aS)-3-methyl-2,3,6b,9,10,10a-hexahydro-1H-pyrido[3′,4′:4,5]pyrrolo[1,2,3-de]quinoxalin-8(7H)-yl)-1-(4-fluorophenyl)-1-butanone]","hippocampal inflammatory cytokine production, delayed dosing","[3]; 3.0 mg/kg, given 30 minutes after LPS, FIG. 10",suppresses inflammatory cytokine production
same,"hippocampal anti-inflammatory cytokine mRNA (IL-4, IL-10)",[3]; [16],significantly enhanced
same,"hippocampal pro-inflammatory cytokine mRNA (IL-1β, IL-6, TNFα, CCL2)",[3]; [16],significantly attenuated
same,stress effects on serum IL-1ρ and IL-6,[4],significantly attenuates
same,stress effects on serum TNF and IL-10,[4],"trends, but not statistically significant"
same,safety and tolerability,[5],safe and well-tolerated
same,hippocampal CCL2 and IL-10 levels,[6],elevated
same,hippocampal expression of pro-inflammatory cytokines by qPCR,[6],generally depressed
same,SERT inhibition,[1],very high SERT inhibition
same,symptoms of emotional experience compared to placebo,[7],significant and unexpected improvement
same,NMDA currents,"[8]; bath applied to rat mPFC slices, 3-100 nM, 5 min later",enhanced
same,effect on NMDA and AMPA currents in the presence of the D1 receptor antagonist SCH-23390,"[8]; lumateperone 30 nM, SCH-23390 1 μM",fully blocked
same,antidepressant-like behaviors,[2],elicit antidepressant-like behaviors
same,"activation of the mTORC1 signaling pathway in mPFC (p-Akt thr308, p-P70S6K)",[9],rapidly activates
same,AMPA currents,[10],enhanced
same,symptoms of depression,[11],improves symptoms of depression
same,duration of effect on phospho-protein levels at 24 hours,[12]; compared with ketamine 30 mg/kg,longer lasting effect compared with ketamine
same,AKT thr308 phosphorylation effect at 24 hours versus ketamine,"[12]; lumateperone 3 mg/kg vs ketamine 30 mg/kg i.p., not declining in intensity (FIG. 8)",stronger at 24 hours than for ketamine
same,mTOR phosphorylation (Serine 2448),[12],Neither ketamine nor lumateperone results in a change
same,p70s6K phosphorylation (Threonine 389),[12],progressively increases
same,phosphorylation of AKT at thr308,[12],increase phosphorylation
same,"Linear Change, down-regulated genes: Ctns, Jun, Polr2l, Usp21, Csf1, Sirt1, Atf4, Fclrls",[13],0.80-0.85 fold
same,"Linear Change, down-regulated genes: Hc, Osmr",[13],<0.500-fold
same,"Linear Change, down-regulated genes: Nfe2l2, Naglu, Pla2g4b, Npas4, Nos3",[13],0.75-0.80-fold
same,"Linear Change, down-regulated genes: Ptgs2, Cp, Cntf, Tnfrsf1a, Il1R1",[13],0.5-0.75-fold
same,"Linear Change, up-regulated gene: Cldn5",[13],>1.5 fold
same,"Linear Change, up-regulated genes: Egr1, Gata2, Olig2",[13],1.25-1.5 fold
same,"Linear Change, up-regulated genes: Phf21a, Islr2, Ngf, Arrb2, Homer1, Notch1, Rapgef2, Pde4d",[13],1.1-1.25 fold
same,"Linear Change, up-regulated genes: Syt4, Adcy9, Gabrb2, Slc8a1, Inppf5, Scn1a, Pten, Crebbp",[13],1.0-1.1 fold
"CNC1(c2ccccc2Cl)CCCCC1=O (stereo not drawn) [ketamine, reference compound]",onset of induction of phosphor-mTOR after administration,[14],≤ 30 min
same,ratings on the Hamilton Depression Rating Scale (HDRS) compared to placebo,"[15]; 40-minute infusion, total dose 0.5 mg/kg, after 24 hours, Berman et al.",significantly improved ratings
same,onset of effects after intravenous infusion,[15]; intravenous infusion,~4 h
same,persistence of effects,[15]; intravenous infusion,up to 2 weeks
same,"activation of the mTORC1 signaling pathway in mPFC (p-Akt thr308, p-P70S6K)",[9],rapidly activates
same,mTOR phosphorylation (Serine 2448),[12],Neither ketamine nor lumateperone results in a change
same,p70s6K phosphorylation (Threonine 389),[12],transiently increase
same,phosphorylation of AKT at thr308,[12],increase phosphorylation
